Key:
[1] = Adjusted Efficiency Values (AEV), pooling/ranking algorithm and efficiency grades for patient X; conditions: for eff.OS: effOS=MPR·RS+(1−MPR)·NRS; for ART (pooled treatment group): sample-size weighted mean ART of the pooled treatments of the line, algorithm steps 1-6; for subjOS: MPR·RS if MPR.QI=1 or MPR·NRS if MPR.QI=−1, table of three AEV by treatment name
Source text: At each step, we also calculate AEG (Adjusted Efficiency Grades) with its standard-error:
AEG is a vector of grades such that to the higher AEV component the equivalent AEG component is 10 and to the lower AEV component the equivalent AEG component is 1.
At each step j, 1≤j≤k−2, we represent two successive “old” treatments (or treatment groups) which bear some different efficiency values in the j−1 step, in one “new” treatment efficiency vales in the j step. This representation is described below (we refer to it by noting that we “pull” treatments' efficiencies and represent it as a different efficiency value): • We are pooling (AEV(l(j−1))^(j−1), AEV(l(j−1)+1)^(j−1)) as if both treatments were a single treatment with an “average Adjusted Efficiency Value”: AEV(l(j−1))^(j−1)
We retain also initial AEG and final AEG (the last step which is “necessary”). But to finally give the Total Efficiency Score (TES) we use the AEG^(J):
TES=0.5×AEGART^(J)+0.45×AEGeffOS^(J)+0.05×AEGsubjOS^(J) which is a vector for k−J treatments groups.
The three AEV are finally: the RTD adjusted or ART=RTD·MPR, the effOS and a subjective OS (we choose explicitly in which group the patient is) i.e.
From RTD (table 2), MPR (table 4), RS and NRS (table 3) we get our three AEV by
ART=MPR·RTD; effOS=MPR·RS+(1−MPR)·NRS;
subjOS=MPR·RS if MPR·QI=1 or MPR·NRS if MPR·QI=−1.
The alternatives (designated here by their references) are ordered by ascending ART, and CLR are computed
The ART are projected on the grade interval (1,10) and we get:
After the 3 algorithms are done we can summarize 3 grades for each alternative and the final grade is the weighted mean of them (The weights are 0.5 for ART, 0.45 for effOS and 0.05 for subjOS when available)

[2] = Efficacy estimators of treatment alternatives reported in clinical trial studies; type: in vivo, patients; conditions: for NRS: Non Response Survival, NRS=RS−RTD; for RS: Response Survival, RS=OS+(1−CBR)·RTD; for RTD* months: duration of clinical benefit, from TTP or PFS and graphical KM considerations
Source text: Usually, in oncological studies we distinguish three reactions to a treatment well defined as their proportions are called: […]
ORR (Objective Response Rate which includes Partial Response and Complete Response) based on a percentage reduction of the tumor, PD (Progressive Disease) based on a percentage increase of the tumor and SD (Stable Disease) in which there is neither sufficient shrinkage to qualify for response, nor sufficient increase to qualify for progression.
Their proportion equals to ORR+SD and is called CBR (Clinical Benefit Rate).
OS (Overall Survival) is the median time from the treatment to death/loss of follow up.
RS (Response Survival) is the median time from response to death/loss of follow up in the responders group.
NRS (Non Response Survival) is the median time from the treatment to death/loss of follow up in the non-responders group.
The PFS (Progression Free Survival) or TTP (Time To Progression) is the median time from the treatment to the progression of the disease.
In the best case the DCB (Duration of Clinical Benefit) is also reported, which is the PFS of the participants defined like CBR.

[3] = cited from earlier work; for P(Ω+|Λ+): probability the treatment works given the marker exists, from clinico-molecular studies
[4] = clinical trial study population, cited from earlier work; for CBR %: Clinical Benefit Rate (ORR+SD); for OS months: median overall survival; for RR %: response rate
[5] = Molecular Prediction of Response (MPR) for patient X; conditions: for MPR: final Molecular Prediction of Response, patient X; for CBR/P(Λ+): Bayesian estimation of P(Ω+|Λ+); for CBR + α · sd(CBR): heuristic estimate of P(Ω+|Λ+), MPR.QI=1
Source text: Now, the MPR (Molecular Prediction of Response) is based on molecular results of the tumor lab analysis like the following:
At first, we attribute to the patient a “qualitative MPR”: MPR·QI in {−1, 0, 1}
If we don't know about any molecular markers that can predict a clinical response, than: MPR·QI=0
If the molecular analysis predicts no clinical response: MPR·QI=−1, and if the molecular analysis predicts some clinical response (including stable disease) MPR·QI=1.
MPR·QI=−1=>we admit in a deterministic way that MPR=0+sd(CBR)
MPR·QI=1=>we distinguish 3 cases.
Λ−⇒Ω− (or Ω+⇒Λ+) • In the best case if the article gives P(Ω+|Λ+) we use it. • If we have relevant knowledge on P(Λ+) we use a Bayesian estimation
P(Ω+|Λ+)=CBR+α·sd(RR) (2.7)
where α=3 for chemotherapy treatments and 2 for biological treatments.
The molecular predictions of the subject with the appropriated efficacy estimators or prevalence estimator from clinico-molecular and epidemiologic studies give the whole information that we need to obtain the final MPR.

[6] = ART=MPR·RTD, table of three AEV by treatment name
[7] = by treatment reference number, ordered ascending, algorithm steps 0-3
[8] = table of three AEV by treatment name

## CNC(=O)c1cc(Oc2ccc(NC(=O)Nc3ccc(Cl)c(C(F)(F)F)c3)c(F)c2)ccn1 [Regorafenib]
[1]; [6]
  ART: 0.971
[1]; [7]
  ART: 0.779
[1]; [8]
  eff.OS: 7.335
[1]; listed as 4
  ART (pooled treatment group): 0.7858
[2]
  NRS: 5.62 months
  RS: 7.52 months
  RTD* months: 1.9 months
[3]; printed in column CBR + α · sd(CBR), MPR.QI=0
  CBR: 41 (CBR)
[4]
  CBR %: 41%
  OS months: 6.4 months
  RR %: 1%
[5]
  MPR: 41

## O=C1NC(=O)[C@@H](c2cn3c4c(cccc24)CCC3)[C@@H]1c1c[nH]c2ccccc12 [Tivantinib]
[2]
  NRS: 5.99 months
  RS: 8.69 months
  RTD* months: 2.7 months

## CN(C)C/C=C/C(=O)Nc1cc2c(Nc3ccc(F)c(Cl)c3)ncnc2cc1O[C@H]1CCOC1 [Afatinib]
[2]
  NRS: 12.54 months
  RS: 16.07 months
  RTD* months: 3.5 months

## CN(C)/N=N/c1[nH]cnc1C(N)=O [Dacarbasine]
[1]; [6]
  ART: 0.779
[1]
  subjOS: 4.011
[1]; [7]
  ART: 0.836
[1]; [8]
  eff.OS: 6.4
[1]; listed as 2
  ART (pooled treatment group): 0.7858
[2]
  NRS: 7.21 months
  RS: 9.12 months
  RTD* months: 1.9 months
[3]
  P(Ω+|Λ+): 44
[4]
  CBR %: 15%
  OS months: 7.5 months
  RR %: 3%
[5]
  CBR/P(Λ+): 24.42
  MPR: 44
  CBR + α · sd(CBR): 23.66

## Cc1nc2ccc(CN(C)c3ccc(C(=O)N[C@@H](CCC(=O)O)C(=O)O)s3)cc2c(=O)[nH]1 [Raltitrexed]
[1]
  subjOS: 3.841
[1]; [7]
  ART: 2.4
[1]; [8]
  eff.OS: 6.288
[1]; listed as 1, step 2, pooled treatments 3 and 1
  ART (pooled treatment group): 2.275
[1]; listed as 1, step 3, pooled treatments 3, 1 and 6
  ART (pooled treatment group): 2.387
[2]
  NRS: 6.68 months
  RS: 11.48 months
  RTD* months: 4.8 months
[3]
  P(Ω+|Λ+): 50
[4]
  CBR %: 15%
  OS months: 7.4 months
  RR %: 0%
[5]
  CBR/P(Λ+): 31.01
  MPR: 50
  CBR + α · sd(CBR): 30.97

## CO[C@H]1C[C@@H]2CC[C@@H](C)[C@@](O)(O2)C(=O)C(=O)N2CCCC[C@H]2C(=O)O[C@H]([C@H](C)C[C@@H]2CC[C@@H](OCCO)[C@H](OC)C2)CC(=O)[C@H](C)/C=C(\C)[C@@H](O)[C@@H](OC)C(=O)[C@H](C)C[C@H](C)/C=C/C=C/C=C/1C [Everolimus]
[1]; [6]
  ART: 2.4
[1]
  subjOS: 9.077
[1]; [7]
  ART: 0.971
[1]; [8]
  eff.OS: 11.03
[2]
  NRS: 5.32 months
  RS: 7.12 months
  RTD* months: 1.8 months
[4]
  CBR %: 32.4%
  OS months: 5.9 months
  RR %: 0%
[5]
  CBR/P(Λ+): 53.97
  MPR: 53.97
  CBR + α · sd(CBR): 49.06
